Where two headings read alike, the source gives them in different places.
Legend:
[1] = test system: CCL205 polyclone; conditions: CMV promoter polyclone
Procedure: (§4) In an effort to address this issue we used plasmids we had constructed that used either of three viral promoter/enhancers: CMV, SV40, or RSV. These viral regulatory elements were used to direct the expression of the selectable marker for Zeocin, a bleomycin binding protein (BBP) that inactivates the drug by binding, rather than enzymatic degradation. The resistant colonies produced by these transfections were grown as polyclones for each different promoter.
The growth of CCL205 cells was slow enough that for IC50 calculations the final viable mass was used rather than growth.

[2] = test system: CRL 5803 polyclones
Procedure: as §4

[3] = test system: ARPE-19 polyclone; experiment: Zeocin dose-response of growth in BBP-transfected polyclones; type: cell-based, human
[4] = test system: CRL1440 polyclones; experiment: as above
Procedure: as §4
Polyclones were expanded in 300 μg/ml Zeocin for SV40 and CMV promoter plasmids, and then plated to determine IC50s for growth at varied Zeocin doses.

[5] = test system: ARPE-19; type: cell-based, human
Procedure: (§1) The cell lines were plated in 48 well plates at an appropriate dilution of cells for each cell line to provide for rapid entry into log phase of growth. The various concentrations of the selection drugs were added so that the drugs were present at the initiation of log phase growth and viable cells were determined after 7-10 days of culture. The screening used data for functional mass at the end of the study to express viable cells as a percentage of the vehicle, or no-treatment control wells. […] The % viable cell mass data was plotted, and fitted typically with a four-parameter equation. The fitted equation was used to calculate the IC50 dose. The drugs tested were G418 (inactivated by neomycin phophotransferase, NPT), hygromycin (inactivated by hygromycin phosphotansferse, HPT), blasticidin (inactivated by blasticidin deaminase, BSD), and zeocin (bound by bleomycin binding protein, BBP). These antibiotics were obtained from Invitrogen/Gibco (Invitrogen SA, Barcelona).
(§2) The drugs, G418, Zeocin, hygromycin, and blasticidin were obtained and used as described earlier. The most important aspect of these studies was to identify the concentration needed to kill all non-transfected cells.

[6] = test system: CRL1440; type: cell-based, human
Procedure: as §1, §2

[7] = test system: CCL205; type: cell-based, human
Procedure: as §1, §2

[8] = test system: CRL5803; type: cell-based, human
Procedure: as §1, §2

[9] = test system: K3.4; experiment: 5FC and 5FU dose-response in BDNF-expressing CRL 5803 line and CD transfectants; type: cell-based; conditions: Homo sapiens, read-out: 5FC IC50
Procedure: (§3) CRL 5803 cells expressing BDNF and CD: The CRL 5803 cell line was transfected with BDNF and clones expressing BDNF were selected. These selected clones were expanded to provide cells for transfections with cytosine deaminase plasmid (CX014). Four CD gene transfection studies were performed with three different BDNF-expressing cell lines. For each cell line at least 24 resistant clones were picked and screened for sensitivity to 100 μM 5FC. The clones with the lowest survival in 5FC (as percent of control wells) were then expanded for dose-response studies with 5FC and 5FU. Cytotoxicity of 5FC was used as an indication of CD gene expression, and this screen provided 6-9 clones per transfection. The IC50 for 5FU indicated the maximum potential cytotoxicity of the prodrug, 5FC, in cells expressing sufficient levels of CD gene and protein.

[10] = test system: K3.3; experiment: as above; type: cell-based; conditions: Homo sapiens; K3.3 transfected with CD gene; read-out: 5FC IC50
Procedure: as §3

[11] = test system: K3.31; experiment: as above; type: cell-based; conditions: Homo sapiens; K3.31 transfected with CD gene; read-out: 5FC IC50
Procedure: as §3

[12] = test system: human colon tumor cells; experiment: 5FC sensitivity of cells expressing WT-CD transgene; type: cell-based
[13] = test system: human kidney cells 293 cells; experiment: as above; type: cell-based; conditions: HEK293, 293 cells expressing WT-CD transgene
[14] = test system: CRL5816 cells; experiment: as above; type: cell-based; conditions: Homo sapiens
[15] = test system: HT1080 cells (CD clone); experiment: 5FC sensitivity of cells expressing WT CD gene; type: cell-based, human
From the text: HT1080 cells and CD Expression, The HT1080 cell line was obtained from the ATCC and transfected with the WT CD gene of the present invention. A clone was isolated that had high expression of immunoreactive CD. […] This represents toxicity at about 100-fold lower concentrations of 5FC than achieved by others with HT1080 cells (Dachs, et al., Nature Medicine 3:515-20, 1997).

[16] = test system: ARPE-19 cells; experiment: 5FC sensitivity of cells transfected with CD gene; type: cell-based, human; conditions: ARPE-19 transfected with CD gene
From the text: ARPE-19 and CD Expression. […] The purpose of the screen was to eliminate 5FU-resistant cells with the expectation that it would be difficult to use CD as a kill system in such cells. We conclude that lack of cytotoxicity with CD transgene and 5FC treatment in these cells is, at least in part, due to the insensitivity of these cells to 5FU cytotoxicity. The 5-FC and CD cell suicide safety system may not readily be an effective safety system with ARPE-19 cells.

Compound: Cc1c(N)nc([C@H](CC(N)=O)NC[C@H](N)C(N)=O)nc1C(=O)N[C@H](C(=O)N[C@H](C)[C@@H](O)[C@H](C)C(=O)N[C@H](C(=O)NCCC1=N[C@@H](c2nc(C(=O)NCCCCN=C(N)N)cs2)CS1)[C@@H](C)O)[C@@H](O[C@@H]1O[C@@H](CO)[C@@H](O)[C@H](O)[C@@H]1O[C@H]1O[C@H](CO)[C@@H](O)[C@H](OC(N)=O)[C@@H]1O)c1cnc[nH]1 [Zeocin]
- IC50 for Zeocin (final viable mass) [1]: 27 µg/mL
- growth IC50 in Zeocin ([2]; CRL 5803, CMV promoter-BBP): 2700 µg/mL
- growth IC50 in Zeocin ([2]; CRL 5803, RSV promoter-BBP): 2400 µg/mL
- growth IC50 in Zeocin ([2]; CRL 5803, SV40 promoter plasmid): 2800 µg/mL
- increase in the growth IC50 ([2]; CRL 5803, all promoters): ~5 fold
- doses at which cytotoxicity was evident ([2]; CRL 5803 CMV promoter polyclone, dose range extended to 5000 μg/ml): > 3000 µg/mL
- shift in resistance compared to cells with no Zeocin-resistance gene ([3]; CMV promoter): ~8 fold
- IC50 for growth in Zeocin ([3]; CMV promoter-BBP polyclone): 399 µg/mL
- IC50 for growth in Zeocin ([4]; CMV plasmids): 2395 µg/mL
- IC50 for growth in Zeocin ([4]; SV40 promoter plasmid): 959 µg/mL
- concentration found to kill non-transfected cells [5]: 50 µg/mL
- concentration found to kill non-transfected cells [6]: 100 µg/mL
- concentration found to kill non-transfected cells [7]: <20 µg/mL
- concentration found to kill non-transfected cells [8]: 500 µg/mL

Compound: Nc1nc(=O)[nH]cc1F [5FC, 5-fluorocytosine]
- IC50 ([9]; independent second transfection with the CD gene): 67 ± 8 µM
- IC50 ([9]; one of the transfections with the CD gene): 79 ± 9 µM
- IC50 [10]: 14 ± 2 µM
- IC50 [11]: 21 ± 2 µM
- IC50 [12]: 45 µM
- IC50 [13]: 55 µM
- IC50 [14]: 48 µM
- IC50 ([15]; Homo sapiens, HT-1080, HT1080 clone with high expression of immunoreactive CD, dominantly growth arrest): 110 µM
- fold lower toxic concentration of 5FC than achieved by others with HT1080 cells ([15]; versus Dachs et al. 1997): about 100 fold
- sensitivity of CD-transfected clones to 5FC [16]: unable to isolate clones that were sensitive to 5FC
